Columns and labels:
[1] = test system: chick chorioallantoic membrane (CAM); experiment: Chick chorioallantoic membrane (CAM) angiogenesis assay; assay type: in vivo, chick (white Leghorn embryos); conditions: VEGF 20 ng, positive control, 48 hours
Experimental: Fertilized 3-day old white Leghorn eggs (CWRU, Squire valley farms) were cracked, and embryos with the yolk intact were placed in 100 mm×20 mm glass bottom Petri dishes. […] CAMs implanted with discs loaded with unmodified dipeptide, HSA, control buffer or with vascular endothelial growth factor (VEGF) were used as negative and positive controls respectively. After 48 hours of incubation, India ink was injected into the vascular system for better visualization of the vessels by a stereomicroscope. Images were captured with a Panasonic CCD camera. Samples were always compared on the same CAM to avoid egg-to-egg variability. For quantitative analysis of vessel density and leakage, CAM images were batch processed using customized macros generated in Image-Pro Plus 5.0 (Media Cybernetics, Silver Spring, Md.). Briefly, a region of interest (ROI) was traced around grafted tissue in each image, each image was then cropped to its ROI, converted to grayscale, and processed using a large spectral filter to enhance the appearance of vasculature whilst omitting presence of larger vessels (determined by filter width). […]
The protein preparations were analyzed for endotoxin and determined to be free of contamination.

[2] = test system: rat cornea (limbal blood vessels); experiment: Rat corneal micropocket assay, angiogenic response to implanted pellets; assay type: in vivo, Sprague-Dawley rats; conditions: pellet 1 mm from limbus, CEP-HSA 1 μg, CEP-dipeptide 37 ng, dipeptide 41 ng
Experimental: Hydron/sucralfate pellets containing unmodified or CEP modified HSA or dipeptide with or without neutralizing antibodies (monoclonal mouse anti-human VEGF, 1.5 μg, R&D systems (MAB293) or monoclonal anti-CEP antibody (Gu, X., et al. (2003) J. Biol. Chem.), 4 μg) were inserted into corneal micropockets (1 mm from the limbus) of Sprague-Dawley rats. Control mouse IgM, 4 μg (eBioscience, cat. #14-4752) and mouse IgG, 1.5 μg (Southern Biotechnology Inc., cat. #0104-01) antibodies were used in control pellets for comparison with anti-CEP and anti-VEGF antibodies respectively. Corneas were examined daily with the aid of a surgical microscope to monitor angiogenic responses to CEP modified peptide or proteins. […] A positive neovascularization response was recorded only if sustained directional in-growth of capillary sprouts and hairpin loops toward the pellet was observed. A negative response was recorded when either no growth is observed or only an occasional sprout or hairpin loop showing no evidence of sustained growth was detected. […] Angiogenic response was analyzed for peak vascular extension and total skeletal (vascular) length using Image-Pro Plus 5.0 (Media Cybernetics, Silver Spring, Md.). […] The resulting image, a single segmented object representing the overall dimensions of the vascular bed, was analyzed for maximum box-width, i.e. extent of vessel penetration. […]

Substance	average skeletal density of CAM vessels [1]	growth of limbal blood vessels towards the pellet [2]
VEGF	~3.1	
acetyl-Gly-Lys-O-methyl ester [dipeptide]		did not induce this effect

— patent US8137991B2, “Methods of reducing angiogenesis of age-related macular degeneration (AMD) or choroidal neovascularization by an anti-carboxyetheylpyrrole (CFP) antibody” (The Cleveland Clinic Foundation, priority 2006, dated 2012)
